Test results reported in the Kinase Knowledgebase extract (Sharma et al. 2016).

Legend:
Assay in all cases: Enzyme Assay
[1] = molecular target: PIK3CA (human) (UniProt P42336)
[2] = molecular target: PIK3CB (Human) (UniProt P42338)
[3] = molecular target: PIK3CD (Human) (UniProt O00329)
[4] = molecular target: PIK3CG (human) (UniProt P48736)
Chain of PIK3CG (human) (P48736 whole entry, looked up): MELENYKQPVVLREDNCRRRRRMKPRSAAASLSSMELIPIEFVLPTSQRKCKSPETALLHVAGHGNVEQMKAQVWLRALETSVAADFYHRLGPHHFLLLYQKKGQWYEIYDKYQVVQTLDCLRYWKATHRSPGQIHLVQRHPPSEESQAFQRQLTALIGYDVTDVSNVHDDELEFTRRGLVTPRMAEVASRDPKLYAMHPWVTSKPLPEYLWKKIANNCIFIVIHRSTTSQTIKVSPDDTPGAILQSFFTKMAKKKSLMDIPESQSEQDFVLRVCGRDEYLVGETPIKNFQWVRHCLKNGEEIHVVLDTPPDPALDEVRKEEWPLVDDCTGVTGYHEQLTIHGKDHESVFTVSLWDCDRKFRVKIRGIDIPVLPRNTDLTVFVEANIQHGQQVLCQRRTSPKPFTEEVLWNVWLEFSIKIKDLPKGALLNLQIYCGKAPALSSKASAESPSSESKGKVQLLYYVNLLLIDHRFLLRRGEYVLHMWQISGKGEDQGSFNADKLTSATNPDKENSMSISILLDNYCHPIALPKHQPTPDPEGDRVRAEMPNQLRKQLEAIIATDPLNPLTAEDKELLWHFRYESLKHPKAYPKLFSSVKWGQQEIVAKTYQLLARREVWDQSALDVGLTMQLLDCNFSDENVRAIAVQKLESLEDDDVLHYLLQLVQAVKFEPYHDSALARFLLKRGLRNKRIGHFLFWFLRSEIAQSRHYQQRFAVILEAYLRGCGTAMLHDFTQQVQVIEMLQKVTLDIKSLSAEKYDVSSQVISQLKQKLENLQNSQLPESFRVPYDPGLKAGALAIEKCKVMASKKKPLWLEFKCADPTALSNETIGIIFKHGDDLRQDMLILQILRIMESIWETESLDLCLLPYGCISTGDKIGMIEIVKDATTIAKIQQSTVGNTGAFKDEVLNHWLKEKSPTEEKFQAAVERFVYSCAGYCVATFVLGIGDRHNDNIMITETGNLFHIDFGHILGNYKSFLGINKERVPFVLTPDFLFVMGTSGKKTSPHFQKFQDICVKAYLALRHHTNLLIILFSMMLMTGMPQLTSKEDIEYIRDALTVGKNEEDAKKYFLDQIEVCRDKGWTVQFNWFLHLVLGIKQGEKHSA

Chain of PIK3CB (Human) (P42338 whole entry, looked up): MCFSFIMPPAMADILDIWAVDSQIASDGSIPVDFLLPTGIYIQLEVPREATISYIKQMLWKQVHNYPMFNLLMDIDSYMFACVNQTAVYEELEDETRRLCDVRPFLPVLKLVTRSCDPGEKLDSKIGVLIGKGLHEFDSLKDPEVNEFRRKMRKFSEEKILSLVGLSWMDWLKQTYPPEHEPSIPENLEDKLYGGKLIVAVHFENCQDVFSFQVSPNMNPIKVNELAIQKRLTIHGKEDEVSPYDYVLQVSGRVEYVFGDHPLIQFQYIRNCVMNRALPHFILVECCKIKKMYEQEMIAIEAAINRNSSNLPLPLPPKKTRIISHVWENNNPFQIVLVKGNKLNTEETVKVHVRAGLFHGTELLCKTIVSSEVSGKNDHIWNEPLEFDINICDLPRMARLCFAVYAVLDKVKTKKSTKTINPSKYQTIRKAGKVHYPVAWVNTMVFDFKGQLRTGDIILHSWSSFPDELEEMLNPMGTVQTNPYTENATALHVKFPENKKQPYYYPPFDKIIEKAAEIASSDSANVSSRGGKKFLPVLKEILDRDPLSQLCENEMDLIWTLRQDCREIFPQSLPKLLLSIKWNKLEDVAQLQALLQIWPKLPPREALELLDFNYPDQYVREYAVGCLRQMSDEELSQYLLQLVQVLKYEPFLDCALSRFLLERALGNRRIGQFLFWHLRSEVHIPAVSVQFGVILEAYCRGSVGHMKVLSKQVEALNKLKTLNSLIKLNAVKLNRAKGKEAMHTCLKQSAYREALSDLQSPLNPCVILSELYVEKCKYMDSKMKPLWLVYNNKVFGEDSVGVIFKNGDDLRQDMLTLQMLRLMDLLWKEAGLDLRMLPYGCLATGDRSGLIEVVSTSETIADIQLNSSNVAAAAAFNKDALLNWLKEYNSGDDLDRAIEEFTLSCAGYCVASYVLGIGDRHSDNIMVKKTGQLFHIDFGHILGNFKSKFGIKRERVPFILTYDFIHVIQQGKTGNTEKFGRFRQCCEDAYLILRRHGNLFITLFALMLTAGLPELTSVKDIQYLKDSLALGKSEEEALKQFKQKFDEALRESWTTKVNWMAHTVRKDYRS
Chain of PIK3CA (human) (P42336 whole entry, looked up): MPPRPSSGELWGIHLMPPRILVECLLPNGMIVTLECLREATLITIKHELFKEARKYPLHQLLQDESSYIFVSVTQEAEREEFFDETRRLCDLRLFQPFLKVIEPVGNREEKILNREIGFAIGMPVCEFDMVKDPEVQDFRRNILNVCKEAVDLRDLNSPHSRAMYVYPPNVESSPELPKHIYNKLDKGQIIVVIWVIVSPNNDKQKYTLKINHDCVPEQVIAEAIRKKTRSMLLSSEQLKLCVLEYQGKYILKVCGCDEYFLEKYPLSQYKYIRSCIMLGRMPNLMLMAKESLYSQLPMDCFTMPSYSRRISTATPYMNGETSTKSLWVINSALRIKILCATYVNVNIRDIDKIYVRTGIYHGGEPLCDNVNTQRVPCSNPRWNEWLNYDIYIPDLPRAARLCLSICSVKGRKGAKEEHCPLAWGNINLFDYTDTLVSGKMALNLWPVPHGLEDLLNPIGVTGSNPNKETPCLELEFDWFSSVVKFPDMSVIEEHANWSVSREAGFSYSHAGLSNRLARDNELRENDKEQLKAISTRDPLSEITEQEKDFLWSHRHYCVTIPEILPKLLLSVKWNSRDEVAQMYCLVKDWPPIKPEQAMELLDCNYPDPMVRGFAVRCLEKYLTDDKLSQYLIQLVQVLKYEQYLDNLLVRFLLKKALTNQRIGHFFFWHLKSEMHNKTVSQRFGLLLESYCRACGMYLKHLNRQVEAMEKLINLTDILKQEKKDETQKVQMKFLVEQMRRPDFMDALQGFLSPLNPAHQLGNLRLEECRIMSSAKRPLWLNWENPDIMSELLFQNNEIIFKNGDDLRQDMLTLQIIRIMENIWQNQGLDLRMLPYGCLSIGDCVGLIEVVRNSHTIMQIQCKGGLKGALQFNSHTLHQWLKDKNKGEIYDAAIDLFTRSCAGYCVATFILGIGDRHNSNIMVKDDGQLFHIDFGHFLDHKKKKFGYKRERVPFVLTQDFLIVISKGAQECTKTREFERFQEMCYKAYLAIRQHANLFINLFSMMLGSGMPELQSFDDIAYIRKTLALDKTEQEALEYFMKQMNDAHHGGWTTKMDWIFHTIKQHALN
Chain of PIK3CD (Human) (O00329 whole entry, looked up): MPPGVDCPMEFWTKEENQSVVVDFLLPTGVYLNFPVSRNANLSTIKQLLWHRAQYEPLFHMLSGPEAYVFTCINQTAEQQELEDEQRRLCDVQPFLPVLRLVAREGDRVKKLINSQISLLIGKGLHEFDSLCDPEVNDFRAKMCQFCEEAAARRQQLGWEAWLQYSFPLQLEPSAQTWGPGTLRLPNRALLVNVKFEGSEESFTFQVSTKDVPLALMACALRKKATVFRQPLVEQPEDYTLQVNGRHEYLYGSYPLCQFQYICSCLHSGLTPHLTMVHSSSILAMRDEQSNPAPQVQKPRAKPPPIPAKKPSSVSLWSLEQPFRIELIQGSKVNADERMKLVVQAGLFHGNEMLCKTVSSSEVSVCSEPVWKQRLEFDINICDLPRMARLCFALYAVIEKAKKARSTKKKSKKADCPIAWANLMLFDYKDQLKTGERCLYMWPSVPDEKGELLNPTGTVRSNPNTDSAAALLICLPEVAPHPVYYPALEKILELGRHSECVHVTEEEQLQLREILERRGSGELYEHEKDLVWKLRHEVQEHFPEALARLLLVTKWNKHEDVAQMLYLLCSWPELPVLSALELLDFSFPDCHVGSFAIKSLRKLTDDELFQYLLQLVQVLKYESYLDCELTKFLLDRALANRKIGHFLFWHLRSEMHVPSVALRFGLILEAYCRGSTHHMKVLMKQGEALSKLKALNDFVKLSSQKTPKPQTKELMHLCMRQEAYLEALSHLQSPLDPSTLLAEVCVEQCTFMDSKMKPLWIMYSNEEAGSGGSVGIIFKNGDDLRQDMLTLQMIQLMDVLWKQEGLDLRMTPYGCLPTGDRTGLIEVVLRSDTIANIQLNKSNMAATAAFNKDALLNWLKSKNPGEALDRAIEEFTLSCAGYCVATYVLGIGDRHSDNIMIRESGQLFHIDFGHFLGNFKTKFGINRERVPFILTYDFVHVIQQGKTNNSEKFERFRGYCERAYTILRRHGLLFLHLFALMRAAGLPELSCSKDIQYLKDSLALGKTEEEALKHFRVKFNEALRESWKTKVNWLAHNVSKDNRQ

IC50 [1]	IC50 [2]	IC50 [3]	IC50 [4]	SMILES
> 10000 nM	100 to 1000 nM	< 100 nM	100 to 1000 nM	Cc1cccc2cc([C@H](C)Nc3ncnc4[nH]nc(Cl)c34)n(C3CC3)c(=O)c12
> 10000 nM	> 10000 nM		100 to 1000 nM	Cc1cccnc1-n1c(Cn2nc(-c3cc(O)cc(F)c3)c3c(N)ncnc32)cc2ccccc2c1=O
	< 100 nM	< 100 nM	100 to 1000 nM	Cc1cccc2cc([C@H](C)Nc3nc(F)nc4[nH]cnc34)n(C3CC3)c(=O)c12
> 10000 nM	> 10000 nM		100 to 1000 nM	Cc1cccc2cc(Cn3nc(C#C[C@@H](C)O)c4c(N)ncnc43)n(-c3ccccc3F)c(=O)c12
> 10000 nM	> 10000 nM	< 100 nM	100 to 1000 nM	Cc1cccc(C)c1-n1c(CNc2ncnc3[nH]cnc23)cc2cccc(C)c2c1=O
> 10000 nM	> 10000 nM		100 to 1000 nM	Cc1cccc2cc(Cn3nc(-c4cn[nH]c4)c4c(N)ncnc43)n(-c3ccccc3Cl)c(=O)c12
> 10000 nM	100 to 1000 nM		100 to 1000 nM	Cc1cccc2cc(Cn3nc(C#C[C@@H](C)O)c4c(N)ncnc43)n(C3CC3)c(=O)c12
> 10000 nM	> 10000 nM	100 to 1000 nM	100 to 1000 nM	CC(=O)Nc1nc2cc(-c3nn(Cc4cc5cccc(C)c5c(=O)n4-c4ccccc4)c4ncnc(N)c34)ccc2s1
> 10000 nM	> 10000 nM		100 to 1000 nM	COc1cc(-c2nn(Cc3cc4cccc(C)c4c(=O)n3-c3ccccc3F)c3ncnc(N)c23)ccc1Cl
> 10000 nM	100 to 1000 nM	< 100 nM	100 to 1000 nM	Cc1cccc2cc([C@H](C)Nc3nc(N)ncc3Cl)n(C3CC3)c(=O)c12
> 10000 nM	> 10000 nM		100 to 1000 nM	Cc1ccccc1-n1c(Cn2nc(-c3cnn(C)c3)c3c(N)ncnc32)cc2cccc(C)c2c1=O
> 10000 nM	> 10000 nM		100 to 1000 nM	Cc1cccc2cc(Cn3nc(-c4ccc(F)c(O)c4)c4c(N)ncnc43)n(-c3ccccc3F)c(=O)c12
> 10000 nM	> 10000 nM		100 to 1000 nM	Cc1cccc2cc(Cn3nc(I)c4c(N)ncnc43)n(-c3ccccc3OCCN3CCOCC3)c(=O)c12
	> 10000 nM		100 to 1000 nM	Cc1cccc2cc(Cn3nc(I)c4c(N)ncnc43)n(-c3ccccc3Cl)c(=O)c12
	> 10000 nM		> 10000 nM	Cc1cccc2cc(Cn3nc(-c4cccc(Cl)c4)c4c(N)ncnc43)n(-c3ccccc3F)c(=O)c12
> 10000 nM	> 10000 nM		100 to 1000 nM	Cc1cccc2cc(Cn3nc(-c4cccc(O)c4)c4c(N)ncnc43)n(-c3ccccc3F)c(=O)c12
> 10000 nM	> 10000 nM	100 to 1000 nM	> 10000 nM	Cc1ccccc1-n1c(Cn2nc(C=CC(=O)N3CCOCC3)c3c(N)ncnc32)cc2cccc(C)c2c1=O
> 10000 nM	> 10000 nM		100 to 1000 nM	COc1ccccc1-n1c(Cn2nc(I)c3c(N)ncnc32)cc2cccc(C)c2c1=O
> 10000 nM	> 10000 nM		100 to 1000 nM	Cc1ccccc1-n1c(Cn2nc(-c3cnn(CCO)c3)c3c(N)ncnc32)cc2cccc(C)c2c1=O
> 10000 nM	> 10000 nM	< 100 nM	100 to 1000 nM	Cc1cccc2cc([C@H](C)Nc3nc(N)ncc3F)n(-c3ccccc3)c(=O)c12
	100 to 1000 nM		100 to 1000 nM	Cc1cccc2cc(Cn3nc(-c4cc(O)cc(F)c4)c4c(N)ncnc43)n(C(C)C)c(=O)c12
> 10000 nM	> 10000 nM	< 100 nM	100 to 1000 nM	Cc1cccc2cc(C(C)Nc3ncnc4[nH]cnc34)n(-c3c(F)cccc3F)c(=O)c12 (centres undefined)
> 10000 nM	> 10000 nM	100 to 1000 nM	100 to 1000 nM	Cc1ccccc1-n1c(Cn2nc(C#CC3CC3)c3c(N)ncnc32)cc2cccc(C)c2c1=O

IC50 [1]	IC50 [2]	IC50 [3]	IC50 [4]	SMILES
> 10000 nM	> 10000 nM		100 to 1000 nM	Cc1ccccc1-n1c(Cn2nc(-c3ccc(F)cc3)c3c(N)ncnc32)cc2cccc(C)c2c1=O
> 10000 nM	> 10000 nM		100 to 1000 nM	C=Cc1nn(Cc2cc3cccc(C)c3c(=O)n2-c2ccccc2C)c2ncnc(N)c12
> 10000 nM	> 10000 nM	< 100 nM	100 to 1000 nM	Cc1cccc2cc(C(C)Nc3ncnc4[nH]cnc34)n(-c3cc(F)cc(F)c3)c(=O)c12 (centres undefined)
> 10000 nM	> 10000 nM		100 to 1000 nM	Cc1cccnc1-n1c(Cn2nc(-c3cccc(O)c3)c3c(N)ncnc32)cc2cccc(C)c2c1=O
> 10000 nM	> 10000 nM		100 to 1000 nM	COc1ccccc1-n1c(Cn2nc(C#C[C@@H](C)O)c3c(N)ncnc32)cc2cccc(C)c2c1=O
> 10000 nM	< 100 nM	< 100 nM	100 to 1000 nM	Cc1cccc2cc([C@H](C)Nc3nc(Cl)nc4[nH]cnc34)n(C3CC3)c(=O)c12
> 10000 nM	> 10000 nM		100 to 1000 nM	Cc1ccccc1-n1c(Cn2nc(I)c3c(N)nccc32)cc2cccc(C)c2c1=O
> 10000 nM	> 10000 nM	< 100 nM	100 to 1000 nM	Cc1cccc2cc([C@H](C)Nc3ncnc4ccccc34)n(-c3ccccc3)c(=O)c12
> 10000 nM	> 10000 nM	100 to 1000 nM	100 to 1000 nM	Cc1cccc2cc([C@H](C)Nc3cc(N)nc(N)n3)n(-c3ccccc3)c(=O)c12
> 10000 nM		< 100 nM	100 to 1000 nM	CC(Nc1ncnc2[nH]cnc12)c1cc2ccccc2c(=O)n1-c1ccccc1 (centres undefined)
> 10000 nM	> 10000 nM		100 to 1000 nM	Cc1cccc2cc(Cn3nc(-c4cn[nH]c4)c4c(N)ncnc43)n(-c3cccc(F)c3)c(=O)c12
> 10000 nM		100 to 1000 nM	100 to 1000 nM	Cc1ccccc1-n1c(Cn2nc(-c3ccc(Cl)cc3)c3c(N)ncnc32)cc2cccc(C)c2c1=O
	> 10000 nM		100 to 1000 nM	Cc1ccncc1-n1c(Cn2nc(I)c3c(N)ncnc32)cc2cccc(C)c2c1=O
> 10000 nM		< 100 nM	100 to 1000 nM	Cc1cccc2cc(Cn3nc(-c4cn[nH]c4)c4c(N)ncnc43)n(-c3ccccc3C(F)(F)F)c(=O)c12
> 10000 nM		100 to 1000 nM	100 to 1000 nM	COc1cccc(-c2nn(Cc3cc4cccc(C)c4c(=O)n3-c3ccccc3C)c3ncnc(N)c23)c1
> 10000 nM	> 10000 nM		100 to 1000 nM	Cc1cccc2cc(Cn3nc(-c4cccc(O)c4)c4c(N)ncnc43)n(-c3ccccc3OCCN3CCOCC3)c(=O)c12
> 10000 nM	> 10000 nM		100 to 1000 nM	Cc1cccc2cc(Cn3nc(-c4cnn(CCO)c4)c4c(N)ncnc43)n(-c3ccccc3F)c(=O)c12
> 10000 nM	> 10000 nM		> 10000 nM	Cc1cccc2cc(Cn3nc(C=C4CCNC4=O)c4c(N)ncnc43)n(-c3ccccc3F)c(=O)c12
> 10000 nM	> 10000 nM		100 to 1000 nM	Cc1cccc2cc(Cn3nc(C#C[C@@H](C)O)c4c(N)ncnc43)n(-c3ccccc3Cl)c(=O)c12
> 10000 nM	> 10000 nM		100 to 1000 nM	Cc1cccc2cc(Cn3nc(C#CCO)c4c(N)ncnc43)n(-c3ccccc3F)c(=O)c12
> 10000 nM	> 10000 nM		100 to 1000 nM	Cc1ccccc1-n1c(Cn2nc(-c3cccc(F)c3)c3c(N)ncnc32)cc2cccc(C)c2c1=O
> 10000 nM	> 10000 nM		100 to 1000 nM	Cc1ccccc1-n1c(Cn2nc(-c3cccc(Cl)c3)c3c(N)ncnc32)cc2cccc(C)c2c1=O
> 10000 nM	> 10000 nM		100 to 1000 nM	Cc1ccccc1-n1c(Cn2nc(C#CCO)c3c(N)ncnc32)cc2cccc(C)c2c1=O

SMILES	IC50 [1]	IC50 [2]	IC50 [3]	IC50 [4]
Cc1ccccc1-n1c(Cn2nc(C(=O)NO)c3c(N)ncnc32)cc2cccc(C)c2c1=O	> 10000 nM		100 to 1000 nM	100 to 1000 nM
